Results from publication PMC3989207, “Subchronic Toxicological Study of Two Artemisinin Derivatives in Dogs” (PLoS ONE, 2014).
Like-named read-outs stand apart in the source and are kept apart here.

Assays:
[1] = design: method as in Teja-Isavadharm et al. (1996); settings: after oral administration compared with i.m. injection of ARM in an oil-based vehicle; ref Teja-Isavadharm et al. (1996); cited from earlier work
[2] = Toxicokinetic analysis of plasma drug levels (HPLC); format: in vivo, dog; settings: both sexes, beagle, dog, plasma, other: ART p.o., ARM i.m., 6 mg/kg, ARM i.m.; for AUC: 6 mg kg^−1 daily, ART p.o., dog plasma
Protocol: (§1) The first day of treatment was regarded as day one in the study. […] Oral administration was performed about 2 h after feeding. ARM was administered by a bolus intramuscular infusion through a 25-gauge needle at a constant volume of 2 ml kg^−1 once a day into the gluteal and infraspinous muscles. Two dogs of each sex from each group were allowed to recover without further treatment for an additional 4 weeks.
For toxicokinetic analysis, blood samples were collected on weeks 1, 2, 4, 8 and 13 at 0 (before dosing), 0.5, 1, 2, 4, 8, 12 and 24 h after dosing. Approximately 1 ml blood was drawn from the antebrachial, cephalic or jugular vein of three animals of each sex per time point and deposited into heparinized tubes for immediate centrifugation at 3000 rpm at 4°C for 10 min. The plasma was then immediately transferred to 2 ml polypropylene tubes and stored on dry ice. Samples were stored at −80°C until HPLC analysis.

beagle dogs [3] = assay: Electrocardiography in the 13-week repeated-dose dog study; format: in vivo; settings: 6 mg kg^-1 per day p.o.; weeks 3 and 5 in males, weeks 5–9 in females (p<0.01), late stages (p<0.05)
Protocol: as §1
Electrocardiograms were recorded using an Auto Electrocardiogram (ECG-9130P, Nihon Kohden Corporation, Japan). Recordings were taken from each dog, while conscious, every 2 weeks from week-1. Leads I, II, III, aVR, aVL and aVF were utilized. The electrocardiography (ECG) parameters included heart rate, PR, QRS and QT interval, and QRS and T wave amplitudes. As the PQ and QT intervals vary with heart rate, they were adjusted to an RR-interval of 500 ms, corresponding to a heart rate of 120 bpm using the following equation: QT500 = QT – 0.084×(RR – 500).

beagle dogs [4] = assay: Ultra-structural examination of liver, kidney and heart by transmission electron microscopy; format: in vivo, dog; settings: weeks 4, 8 and 13; TEM
Protocol: as §1
Termination of treatment was scheduled to occur on weeks 4, 8 (two interim necropsies) and 13, followed by a 4-week recovery period. For pathological examinations, the animals were euthanized within 24 h of the final drug administration with sodium pentobarbital, followed by exsanguination via the femoral artery. A gross necropsy was performed, including a thorough visual examination of all the internal organs. Weights were obtained for the brain, heart, liver, spleen, lung, kidneys, adrenals, thyroid/parathyroids, thymus, pancreas and ovaries/testes/prostate, and organ-to-body weight ratios were calculated. For each animal, representative samples from approximately 48 organs and tissues were taken and fixed in neutral buffered 10% formalin, except for the sternum, which was retained in Helly’s fixative (1000 ml distilled water, 25 g potassium dichromate, 10 g sodium sulfate, 50 g mercuric chloride, 50 ml 40% formaldehyde). […]

beagle dogs [5] = assay: Clinical chemistry in the 13-week repeated-dose dog study; format: in vivo
Protocol: as §1
(§2) Blood samples were collected from the femoral vein of each dog prior to treatment and every 2 weeks after the first day of treatment. Hematology parameters were measured using an automated hematology analyzer (Sysmex, XT-2000iv, Toa Medical Electronics Co. Ltd., Kobe, Japan) using standard methods. Test parameters included hemoglobin (Hb) levels, the hematocrit (Hct) fraction, erythrocyte (RBC) count, leukocyte (WBC) count, neutrophilic granulocyte fraction (NE%), monocyte fraction (MO%), lymphocyte levels (LY%), platelet count (PLT), reticulocyte count (RET%) and RBC morphology. The following clinical chemistry parameters were measured using a Hitachi-7180 Chemistry Analyzer (High-Technologies Corporation, Tokyo, Japan) and standard methods: glucose, blood urea nitrogen, inorganic phosphorus, creatinine, total protein, albumin, calcium, aspartate aminotransferase (AST), alanine aminotransferase, alkaline phosphatase, total bilirubin, creatine kinase (CK), sodium, potassium and chloride.

[6] = design: method as in PMID 11060779; settings: cited from earlier work
beagle dogs [7] = assay: Hematology in the 13-week repeated-dose dog study; format: in vivo
Protocol: as §1, §2
The differential granulocytic and erythrocytic series (erythroid, myeloid blast cell count and the red ratio) were determined manually from blood smears.

beagle dogs [8] = assay: Pathologic (histopathological) examination of organs, brain and cardiac conduction system; format: in vivo, dog
Protocol: as §1
Termination of treatment was scheduled to occur on weeks 4, 8 (two interim necropsies) and 13, followed by a 4-week recovery period. For pathological examinations, the animals were euthanized within 24 h of the final drug administration with sodium pentobarbital, followed by exsanguination via the femoral artery. A gross necropsy was performed, including a thorough visual examination of all the internal organs. Weights were obtained for the brain, heart, liver, spleen, lung, kidneys, adrenals, thyroid/parathyroids, thymus, pancreas and ovaries/testes/prostate, and organ-to-body weight ratios were calculated. For each animal, representative samples from approximately 48 organs and tissues were taken and fixed in neutral buffered 10% formalin, except for the sternum, which was retained in Helly’s fixative (1000 ml distilled water, 25 g potassium dichromate, 10 g sodium sulfate, 50 g mercuric chloride, 50 ml 40% formaldehyde). Histopathological sections of all samples were prepared by embedding in paraffin wax, multiple-sectioning and staining with hematoxylin and eosin (HE). Samples of the left ventricular myocardium, right lateral hepatic lobe and right kidney from two animals of each sex from each group were fixed immediately after exsanguination in 2.5% glutaraldehyde, post-fixed in 1.0% osmium tetroxide, and embedded in plastic. Ultrathin liver, kidney and heart sections were examined with a Hitachi H-600 transmission electron microscope (TEM). All other tissues were examined by light microscopy.
After removal, the cardiac conduction system, including the sinoatrial node (SAN) and atrioventricular node (AVN), were selected by the Palate method. The brain was sectioned at multiple transverse levels to obtain susceptible brain regions. To improve the definition of the brain lesions, toluidine stains were applied on selected duplicate sections, and all preparations were examined under a light microscope. For pathologic examinations, degenerative neurons were evaluated on three randomly selected brain sections. The adjacent fields of neurons in each selected section were counted using a microscope at a magnification of 200×. […] The severity of the neuropathological lesions was defined as follows: the total number of neuropathological lesions per section area yielded a severity score from 0 to 4, where 0 = unaffected, 1 = minimally affected neurons with one degenerative cell per section, 2 = two degenerative cells per section, 3 = three degenerative cells per section and 4 = multiple degenerative areas per section.

Dogs = system: Dogs; design: method as in PMID 8053022, PMID 8053028, PMID 7943542; settings: for 4 weeks; cited from earlier work
[9] = Week 13, females, 6 mg kg^-1 per day
[10] = week 2 until week 10 post-treatment, vs control groups (p<0.05)
[11] = Week 4, 6 mg kg^-1 per day (ART p.o., ARM i.m.)
[12] = Week 8, 6 mg kg^-1 per day (ART p.o., ARM i.m.)
[13] = Week 13, 6 mg kg^-1 per day (ART p.o., ARM i.m.)
[14] = Week 17 (after 4-week recovery)
[15] = both treated groups, no significant differences

C[C@H]1[C@@H](O)O[C@@H]2O[C@@]3(C)CC[C@H]4[C@H](C)CC[C@@H]1[C@@]24OO3 [DHA, dihydroartemisinin]
decline of plasma concentrations [1]: declined much faster after oral administration

C[C@H]1[C@H](OC(=O)CCC(=O)O)O[C@@H]2O[C@@]3(C)CC[C@H]4[C@H](C)CC[C@@H]1[C@@]24OO3 [ART, artesunate]
AUC ([2]; week 8, read-out: AUC8w): 580 ± 211 ng·h/mL
AUC ([2]; week four, read-out: AUC4w): 1270 ± 539 ng·h/mL
AUC(0-t) ([2]; read-out: AUC93D): 729 ± 440 ng·h/mL
heart rate during treatment (beagle dogs [3]): statistically significant decrease
decline of plasma concentrations [1]: declined much faster after oral administration
ultra-structural findings in hepatocytes, myocardial cells and proximal tubules in the kidney (beagle dogs [4]): Mitochondrial bending and distortion and swollen vacuoles
Clinical chemistry (overall) (beagle dogs [5]; Week 8, 6 mg kg^-1 per day): - (“-” = No effect)
Clinical chemistry: Alb(F) (beagle dogs [5]; [9]): ↓TP(F), ↓Alb(F)
Clinical chemistry: TP(F) (beagle dogs [5]; [9]): ↓TP(F), ↓Alb(F)
serum albumin levels (beagle dogs [5]; weeks 10 and 12): significant decrease
solubility character [6]: water soluble
Hematology: Hb (beagle dogs [7]; Week 4, 6 mg kg^-1 per day): ↓Hct, ↓Hb
Hematology: Hct (beagle dogs [7]; Week 4, 6 mg kg^-1 per day): ↓Hct, ↓Hb
Hematology: Hb (beagle dogs [7]; Week 8, 6 mg kg^-1 per day): ↓Hct, ↓Hb, ↓MCV
Hematology: Hct (beagle dogs [7]; Week 8, 6 mg kg^-1 per day): ↓Hct, ↓Hb, ↓MCV
Hematology: MCV (beagle dogs [7]; Week 8, 6 mg kg^-1 per day): ↓Hct, ↓Hb, ↓MCV
Hematology: Hb (beagle dogs [7]; Week 13, 6 mg kg^-1 per day): ↓Hct, ↓Hb
Hematology: Hct (beagle dogs [7]; Week 13, 6 mg kg^-1 per day): ↓Hct, ↓Hb
MO% (beagle dogs [7]; males and females, after weeks 2 and 4 (p<0.05)): significant increases
Hb levels (beagle dogs [7]; week 2): corresponding decrease
RBC counts (beagle dogs [7]; week 2): decrease
LY% (beagle dogs [7]; [10]): decreased
NE% (beagle dogs [7]; [10]): significantly increased
WBC count (beagle dogs [7]; [10]): significantly increased
neurotoxicity (beagle dogs [8]; 6 mg kg^-1 per day p.o. for 13 weeks): not observed
Cardiac conduction system foci (dogs affected/examined) (beagle dogs [8]; [11]): 0
Extramedullary hematopoiesis (dogs affected/examined) (beagle dogs [8]; [11]): 3/4
Hepatocyte necrosis (dogs affected/examined) (beagle dogs [8]; [11]): 0
Inhibition of erythropoiesis (dogs affected/examined) (beagle dogs [8]; [11]): 2/4
Neuronal necrosis (dogs affected/examined) (beagle dogs [8]; [11]): 0
Tubular cell degeneration (dogs affected/examined) (beagle dogs [8]; [11]): 2/4
Cardiac conduction system foci (dogs affected/examined) (beagle dogs [8]; [12]): 1/4
Extramedullary hematopoiesis (dogs affected/examined) (beagle dogs [8]; [12]): 1/4
Hepatocyte necrosis (dogs affected/examined) (beagle dogs [8]; [12]): 0
Inhibition of erythropoiesis (dogs affected/examined) (beagle dogs [8]; [12]): 0
Neuronal necrosis (dogs affected/examined) (beagle dogs [8]; [12]): 0
Tubular cell degeneration (dogs affected/examined) (beagle dogs [8]; [12]): 3/4
Cardiac conduction system foci (dogs affected/examined) (beagle dogs [8]; [13]): 2/4
Extramedullary hematopoiesis (dogs affected/examined) (beagle dogs [8]; [13]): 0
Hepatocyte necrosis (dogs affected/examined) (beagle dogs [8]; [13]): 0
Inhibition of erythropoiesis (dogs affected/examined) (beagle dogs [8]; [13]): 0
Neuronal necrosis (dogs affected/examined) (beagle dogs [8]; [13]): 0
Tubular cell degeneration (dogs affected/examined) (beagle dogs [8]; [13]): 0
Cardiac conduction system foci (dogs affected/examined) (beagle dogs [8]; [14]): 0
Extramedullary hematopoiesis (dogs affected/examined) (beagle dogs [8]; [14]): 0
Hepatocyte necrosis (dogs affected/examined) (beagle dogs [8]; [14]): 0
Inhibition of erythropoiesis (dogs affected/examined) (beagle dogs [8]; [14]): 0
Neuronal necrosis (dogs affected/examined) (beagle dogs [8]; [14]): 0
Tubular cell degeneration (dogs affected/examined) (beagle dogs [8]; [14]): 1/4
histological examination of sternal bone marrow (beagle dogs [8]; [15]): mild inhibition of erythropoiesis and a decreased count of mature erythrocytes
spleen histology (beagle dogs [8]; [15]): extramedullary hematopoiesis was observed in the spleen
histopathological changes in the kidneys (beagle dogs [8]; vs control groups): tubular epithelium vacuolation and necrosis

CCO[C@H]1O[C@@H]2O[C@@]3(C)CC[C@H]4[C@H](C)CC[C@@H]([C@H]1C)[C@@]24OO3 [ARE, arteether]
calculated average minimal daily dose necessary to produce toxicity observable by histopathology (Dogs): 6 mg kg^−1
solubility character [6]: fat soluble
